Legend:
SARS-CoV-2 [1] = assay: microbe, parasite or virus in culture; assay type: functional, organism-based, Chlorocebus sabaeus, Vero C1008; settings: Severe acute respiratory syndrome coronavirus 2, Vero C1008, 48 h
in vitro = settings: chlorocebus sabaeus, Vero E6 (Vero C1008) cells
SARS-CoV-2 [2] = assay: microbe, parasite or virus in culture; settings: Severe acute respiratory syndrome coronavirus 2, Vero C1008, 48 h

| Structure (SMILES) | IC50 (SARS-CoV-2 [1]; read-out: IC50) | IC50 (SARS-CoV-2 [1]; read-out: pIC50 (converted)) | CC50 at 48 h (in vitro; CC50) | CC50 at 48 h (in vitro; pCC50) | IC50 (SARS-CoV-2 [2]) | IC50 (SARS-CoV-2 [2]; read-out: pIC50 (converted)) |
| --- | --- | --- | --- | --- | --- | --- |
| COc1cccc2c1C(=O)c1c(O)c3c(c(O)c1C2=O)C[C@@](O)(C(=O)CO)C[C@@H]3O[C@H]1C[C@H](N)[C@H](O)[C@H](C)O1 [DOXORUBICIN] | ~33.1 µM | ~33.1 µM | 64.6 µM | 64.6 µM | 8.04 µM | 7.94 µM |
| NC(=O)C1CN(CCCCC(c2ccc(F)cc2)c2ccc(F)cc2)CCN1CC(=O)Nc1c(Cl)cc(N)cc1Cl (stereo not drawn) [DRAFLAZINE] | > 100 µM | > 100 µM | 9.66 µM | 9.55 µM | > 100 µM | > 100 µM |
| CCCCc1oc2ccc(NS(C)(=O)=O)cc2c1C(=O)c1ccc(OCCCN(CCCC)CCCC)cc1 [DRONEDARONE] | > 100 µM | > 100 µM | 3.85 µM | 3.8 µM | ~3.02 µM | ~3.02 µM |
| O=C(N[C@H]1CN2CCC1CC2)c1cc2cccc(Cl)c2s1 [ENCENICLINE] | > 100 µM | > 100 µM | 20.9 µM | 20.9 µM | > 100 µM | > 100 µM |
| Cc1cc(-c2ccc(/N=N/c3ccc4c(S(=O)(=O)O)cc(S(=O)(=O)O)c(N)c4c3O)c(C)c2)ccc1/N=N/c1ccc2c(S(=O)(=O)O)cc(S(=O)(=O)O)c(N)c2c1O [EVANS BLUE FREE ACID] | > 100 µM | > 100 µM | 18 µM | 17.8 µM | > 100 µM | > 100 µM |
| COc1ccc2cc1Oc1ccc(cc1)C[C@H]1c3cc(c(OC)cc3CCN1C)Oc1c(OC)c(OC)cc3c1[C@H](C2)N(C)CC3 [FANCHININ] | > 50.1 µM | > 50.1 µM | 5.17 µM | 5.13 µM | 3.98 µM | 3.98 µM |
| CC1=C(/C=C/C(C)=C/C=C/C(C)=C/C(=O)Nc2ccc(O)cc2)C(C)(C)CCC1 [FENRETINIDE] | 2.95 µM | 2.95 µM | 5.01 µM | 5.01 µM | > 100 µM | > 100 µM |
| CN(C)CCCn1cc(-c2ccccc2)c(-c2ccccc2)n1 [FEZOLAMINE] | > 100 µM | > 100 µM | 39.8 µM | 39.8 µM | 14.5 µM | 14.5 µM |
| CCOC(=O)Nc1ccc(NCc2ccc(F)cc2)nc1N [FLUPIRTINE] | > 100 µM | > 100 µM | > 100 µM | > 100 µM | > 100 µM | > 100 µM |
| OC(CCCN1CCc2c(c3cc(F)ccc3n2-c2ccc(F)cc2)C1)c1ccc(F)cc1 (stereo not drawn) [FLUTROLINE] | > 100 µM | > 100 µM | 6.92 µM | 6.92 µM | 4.68 µM | 4.68 µM |
| COc1cc2c(cc1OC)C(c1cccc(Cl)c1)=NN=C(C)C2 [GIRISOPAM] | > 100 µM | > 100 µM | > 100 µM | > 100 µM | > 100 µM | > 100 µM |
| CCN(CC)Cc1ccc2cc(COC(=O)Nc3ccc(C(=O)NO)cc3)ccc2c1 [GIVINOSTAT] | > 100 µM | > 100 µM | 0.767 µM | 0.759 µM | 10.5 µM | 10.5 µM |
| CCn1cc(-c2ccnc3[nH]c(-c4cccc(CN(C)C)c4)cc23)c(-c2ccc(NC(=O)N(C)C)cc2)n1 [GSK-1070916] | > 100 µM | > 100 µM | 9.33 µM | 9.33 µM | > 100 µM | > 100 µM |
| CCN(CC)CCOc1ccc(-c2nc3cc(Cl)ccc3s2)cc1 [HALETHAZOLE] | > 100 µM | > 100 µM | 3.72 µM | 3.72 µM | ~3.89 µM | ~3.89 µM |
| CCCCN(CCCC)CCC(O)c1cc2c(Cl)cc(Cl)cc2c2cc(C(F)(F)F)ccc12 (stereo not drawn) [HALOFANTRINE] | ~9.12 µM | ~9.12 µM | 11.5 µM | 11.5 µM | 9.55 µM | 9.55 µM |
| CN1CCCN(C(c2ccccc2)c2ccc(Cl)cc2)CC1 (stereo not drawn) [HOMOCHLORCYCLIZINE] | > 25.1 µM | > 25.1 µM | 21.1 µM | 20.9 µM | > 20 µM | > 20 µM |
| CC[C@H]1CN2CC[C@H]1C[C@H]2[C@H](O)c1ccnc2ccc(OC)cc12 [HYDROQUININE] | > 25.1 µM | > 25.1 µM | > 25.1 µM | > 25.1 µM | 15.5 µM | 15.5 µM |
| CCN(CCO)CCCC(C)Nc1ccnc2cc(Cl)ccc12 (stereo not drawn) [HYDROXYCHLOROQUINE] | ~17.1 µM | ~17 µM | 47.9 µM | 47.9 µM | ~11.6 µM | ~11.5 µM |
| COc1ccc2c(c1)c(CC(=O)O)c(C)n2C(=O)c1ccc(Cl)cc1 [INDOMETHACIN] | > 100 µM | > 100 µM | > 100 µM | > 100 µM | > 100 µM | > 100 µM |
| CO[C@H]1CC[C@H](n2c([C@@H]3CCCC(=O)N3c3ccc(F)c(F)c3)nc3cc(-c4c(C)noc4C)ccc32)CC1 [INOBRODIB] | > 100 µM | > 100 µM | 3.16 µM | 3.16 µM | > 100 µM | > 100 µM |
| CC(C)(C)c1cc(C(C)(C)C)c(NC(=O)c2c[nH]c3ccccc3c2=O)cc1O [IVACAFTOR] | > 25.1 µM | > 25.1 µM | 4.62 µM | 4.57 µM | 4.57 µM | 4.57 µM |
| Clc1ccc(-c2nn(Cc3ccccc3)c3c2CCNCC3)cc1 [JNJ-18038683 FREE BASE] | > 25.1 µM | > 25.1 µM | 14.6 µM | 14.5 µM | > 25.1 µM | > 25.1 µM |
| CCCCCCC(C)(C)c1cc(O)c2c(c1)OC(C)(C)[C@@H]1CC=C(C(=O)O)C[C@@H]21 [LENABASUM] | > 100 µM | > 100 µM | ~21.4 µM | ~21.4 µM | > 100 µM | > 100 µM |
| Clc1cnn(CCCCN2CCN(c3ncccn3)CC2)c1 [LESOPITRON] | > 100 µM | > 100 µM | > 100 µM | > 100 µM | 2.34 µM | 2.34 µM |
| COc1ccc2c(c1)N(C[C@H](C)CN(C)C)c1ccccc1S2 [LEVOMEPROMAZINE] | > 50.1 µM | > 50.1 µM | 11.6 µM | 11.5 µM | 11.8 µM | 11.7 µM |
| Cc1cccc(C)c1NC(=O)CN1CCN(CCCC(c2ccc(F)cc2)c2ccc(F)cc2)CC1 [LIDOFLAZINE] | > 100 µM | > 100 µM | 8.41 µM | 8.32 µM | 9.55 µM | 9.55 µM |
| CN1CCC(OC(=O)C(Oc2ccc(Cl)cc2)Oc2ccc(Cl)cc2)CC1 [LIFIBRATE] | > 100 µM | > 100 µM | 38 µM | 38 µM | > 100 µM | > 100 µM |
| Cc1cccc(C)c1OCC(=O)N[C@@H](Cc1ccccc1)[C@@H](O)C[C@H](Cc1ccccc1)NC(=O)[C@H](C(C)C)N1CCCNC1=O [LOPINAVIR] | ~15.7 µM | ~15.5 µM | ~33.7 µM | ~33.9 µM | 22.9 µM | 22.9 µM |

Reference: ChEMBL document CHEMBL4651402, “Screening of ~5500 FDA-approved drugs and clinical candidates for anti-SARS-CoV-2 activity” (2021)
